Test results published in patent US12139717B2, “Improving plant regeneration” (KWS SAAT SE & Co. KGaA, priority 2019, dated 2024).
Entries after “also recorded” stand apart in the source; their conditions may differ.

Experiments:
Arabidopsis thaliana = settings: Poretska et al. 2016; cited from earlier work
sugar beet leaf explants = assay: Sugar beet callus induction from leaf explants in callus induction medium; assay type: cell-based; set-up: key to Callus induction effect: −: no callus induction effect; +: modest callus induction effect; ++: strong callus induction effect; settings: for callus induction in recalcitrant genotype A (FIG. 3): DMSO control
Experimental: 1. Micropropagated shoots of various proprietary genotypes were used as starting material: Genotypes A and B are recalcitrant to callus induction and plant regeneration. […] Therefore, such calli were never transformable.
Genotype C is less recalcitrant. Shoots were multiplied in MS salts+30 g/l sucrose and 0.25 mg/l benzyladenine (BAP).
2. To induce friable callus, leaf explants were isolated from micropropagated shoots and incubated in callus induction medium (CIM) containing MS salts including 15 g/I sucrose and 2 mg/l BAP at 28° C. for 7 to 8 weeks. […] HP is Hyperphyllin, a small molecule with the chemical formula N-[4-Amino-2-chlorophenyl]-2,4-dichlorobenzamide (CAS #: 42480-64-8).
After incubation period the induction and formation of callus has been analysed. […] There is no significant difference in induction efficiency between these two concentrations.

sugar beet friable calli = assay: Sugar beet shoot induction and plant regeneration from induced calli; assay type: cell-based; settings: calli induced with vs without HP
Experimental: 3. Friable calli of step 2 were harvested from the induction and transferred to the shoot induction medium containing MS salts, 30 g/l sucrose, 1 mg/l GA3 and 1 mg/l Thidiazuron (TDZ). The calli were incubated at 24° C. in the light/dark cycle (16 h/8 h) for 1 to 2 weeks. 4. Regenerated shoots were mounted and cultured in the medium of step 1. The plants are grown at 24° C. in the light/dark cycle (16 h/8 h).

sugar beet callus = assay: Agrobacteria-mediated transformation of HP induced sugar beet callus; assay type: cell-based; settings: recalcitrant genotype; 70s::tDT construct; seven days after infection
Experimental: a. Sugar beet calli were induced as described in steps 1 and 2.
b. Friable calli were mounted in medium containing MS salts, 30 g/l sucrose, 1 mg/l GA3 and 1 mg/l Thidiazuron (TDZ), and kept for 1 week in the dark, 24° C.
c. Agrobacterium AGL-1 harbouring the vector pZFN-nptII-70s::AtGRF5 and pZFN-nptII-70s::tDT was grown in medium (5 g/l tryptone+2.5 g/l yeast extract+1 g/l NaCl+5 g/l mannitol+0.1 g/l MgSO4×7H2O+0.25 g/l KH2PO4+1 g/l glutamic acid, pH 7.0) supplemented with the appropriate antibiotics, at 28° C., for 24 h.
d. Calli were inoculated with Agrobacterium suspension (medium: 440 mg/l CaCl2×2H2O+170 mg/l KH2PO4+1.9 g/l KNO3+180.7 mg/l MgSO4+1.65 g/l NH4NO3+2 mg/l BAP+40 μg/l Acetosyringone+20 g/l sucrose+2 g/l glucose, pH 6.0) at an OD600 of 0.8. The callus tissue and the Agrobacterium were incubated in medium comprising 440 mg/l CaCl2×2H2O, 170 mg/l KH2PO4, 1.9 g/l KNO3, 180.7 mg/l MgSO4, 1.65 g/l NH4NO3, 2 mg/l BAP, 40 μg/l Acetosyringone, 20 g/l sucrose and 2 g/l glucose, at 21° C. for 3 days in the dark.
e. Calli were sub-cultured to medium comprising MS salts, 30 g/l sucrose, 1 mg/l GA3, 1 mg/l TDZ and 500 mg/l Timentin, and incubated in the dark, at 24° C. for 1 week.
f. […]

| Compound | leaf formation rate (Arabidopsis thaliana) | callus inducing effect (in words) (sugar beet leaf explants; 30 μM) | Callus induction effect (sugar beet leaf explants; 30 μM dissolved in 2 ml/L DMSO) | Callus induction effect (sugar beet leaf explants; 50 μM dissolved in 2 ml/L DMSO) | callus inducing effect (in words) (sugar beet leaf explants; 50 μM) | callus induction in recalcitrant genotype (FIG. 9) (sugar beet leaf explants; 50 μM as printed in legend, control without HP treatment) | callus inducing effect (in words) (sugar beet leaf explants; 10 μM) | Callus induction effect (sugar beet leaf explants; 10 μM dissolved in 2 ml/L DMSO) | amount of callus tissue induced from leaves (FIG. 5) (sugar beet leaf explants; 30 μM vs control without HP) | callus induction in recalcitrant genotype A (FIG. 3) (sugar beet leaf explants; 30 μM) | callus induction in recalcitrant genotype A (FIG. 3) (sugar beet leaf explants; 50 μM) | callus inducing effect (in words) (sugar beet leaf explants; 100 μM) | Callus induction effect (sugar beet leaf explants; 100 μM dissolved in 2 ml/L DMSO) | Callus induction effect (sugar beet leaf explants; 500 μM dissolved in 2 ml/L DMSO) | Callus induction effect (sugar beet leaf explants; 1 mM dissolved in 2 ml/L DMSO) | callus inducing effect (in words) (sugar beet leaf explants; higher concentration (500 μM, 1 mM)) | callus induction efficiency with vs without HP (FIG. 4) (sugar beet leaf explants; recalcitrant genotypes A and B) | plants regenerated from induced callus (FIG. 6) (sugar beet friable calli) | Agrobacterium infection of HP induced callus (FIG. 7) (sugar beet callus) |
| --- | --- | --- | --- | --- | --- | --- | --- | --- | --- | --- | --- | --- | --- | --- | --- | --- | --- | --- | --- |
| O=C(Nc1ccccc1)c1ccccc1Cl [HP derivate A3] | enhance leaf formation rate |  |  |  |  |  |  |  |  |  |  |  |  |  |  |  |  |  |  |
| O=C(Nc1c(F)cccc1F)c1ccc(Cl)cc1 [HP derivate A1] | enhance leaf formation rate | worked | + | − |  |  |  |  |  |  |  |  |  |  |  |  |  |  |  |
| O=C(Nc1ccccc1)c1c(F)cccc1Cl [HP derivate A2] | enhance leaf formation rate | strong callus-inducing effect | ++ | + | weak effect | promotes callus induction |  |  |  |  |  |  |  |  |  |  |  |  |  |
| Nc1ccc(NC(=O)c2ccc(Cl)cc2Cl)c(Cl)c1 [HP, N-[4-Amino-2-chlorophenyl]-2,4-dichlorobenzamide] | enhance leaf formation rate | strong callus inducing effect | ++ | ++ | strong callus inducing effect |  | modest effect | + | much more amount of callus tissue | dramatically promotes callus induction; also recorded: promotes callus formation | promotes callus formation | modest effect | + | − | − | no effect | boosting effect | More plants could be regenerated | can be infected by agrobacteria |
